According to ChEMBL document CHEMBL5113508, “Targeting Human CD22/Siglec-2 with Dimeric Sialosides as Novel Oligosaccharide Mimetics” (J Med Chem, 2022):

Columns and labels:
[1] = target: B-cell receptor CD22 (Homo sapiens) (UniProt P20273); assay: (§1) Inhibition of CD22 in human Daudi cells assessed as relative inhibitory potency in presence of biotinylated dimeric 2-(78-biotinoylamino-1,4,7,10,13,16-hexaoxa-octadecyl)-1,4-bis(2-aza-l-oxo-8-(sodium(5-acetamido-3,5,9-trideoxy-9-(4-phenylbenzamido)-D-glycero-a-D-galacto-non-2-ulopyranosyloxyonate))-5-thia-octyl) benzene preincubated for 15 mins followed by probe addition incubated for 20 mins by flow cytometric analysis relative to 1,4-bis-(2-Aza-1-oxo-8-(sodium(5-acetamido-3,5,9-trideoxy-9-(4-phenylbenzamido)-D-glycero-alpha-D-galacto-non-2-ulopyranosyloxyonate))-5-thia-octyl)benzene; assay type: cell-based; settings: time 35.0 min
[2] = target: B-cell receptor CD22 (Homo sapiens) (UniProt P20273); assay: Inhibition of to hFc tagged CD22 (unknown origin) assessed as relative inhibitory potency incubated for 4 hrs by ELISA relative to 1,4-bis-(2-Aza-1-oxo-8-(sodium(5-acetamido-3,5,9-trideoxy-9-(4-phenylbenzamido)-D-glycero-alpha-D-galacto-non-2-ulopyranosyloxyonate))-5-thia-octyl)benzene
[3] = target: B-cell receptor CD22 (Homo sapiens) (UniProt P20273); assay: Antagonist activity at CD22 in IgM stimulated human Daudi cells assessed as increase in calcium flux incubated for 10 mins by flow cytometric analysis; assay type: cell-based; settings: dose 2-200 µM, DDE = dose-dependent effect
[4] = target: B-cell receptor CD22 (Homo sapiens) (UniProt P20273); assay: as §1, with “CD22 (unknown origin)” for “CD22”, “1,4-Bis-(2-aza-1-oxo-8-(sodium-(5-acetamido-3,5-dideoxy-D-glycero-alpha-D-galacto-non-2-ulopyranosyloxyonate))-5-thia-octyl)benzene” for “1,4-bis-(2-Aza-1-oxo-8-(sodium(5-acetamido-3,5,9-trideoxy-9-(4-phenylbenzamido)-D-glycero-alpha-D-galacto-non-2-ulopyranosyloxyonate))-5-thia-octyl)benzene”; assay type: cell-based; settings: time 35.0 min
B-cell receptor CD22 [5] = target: T1, B-cell receptor CD22 (Homo sapiens, UniProt P20273); assay: Inhibition hFc tagged CD22 incubated for 4 hrs by ELISA
T1 sequence (P20273 whole entry): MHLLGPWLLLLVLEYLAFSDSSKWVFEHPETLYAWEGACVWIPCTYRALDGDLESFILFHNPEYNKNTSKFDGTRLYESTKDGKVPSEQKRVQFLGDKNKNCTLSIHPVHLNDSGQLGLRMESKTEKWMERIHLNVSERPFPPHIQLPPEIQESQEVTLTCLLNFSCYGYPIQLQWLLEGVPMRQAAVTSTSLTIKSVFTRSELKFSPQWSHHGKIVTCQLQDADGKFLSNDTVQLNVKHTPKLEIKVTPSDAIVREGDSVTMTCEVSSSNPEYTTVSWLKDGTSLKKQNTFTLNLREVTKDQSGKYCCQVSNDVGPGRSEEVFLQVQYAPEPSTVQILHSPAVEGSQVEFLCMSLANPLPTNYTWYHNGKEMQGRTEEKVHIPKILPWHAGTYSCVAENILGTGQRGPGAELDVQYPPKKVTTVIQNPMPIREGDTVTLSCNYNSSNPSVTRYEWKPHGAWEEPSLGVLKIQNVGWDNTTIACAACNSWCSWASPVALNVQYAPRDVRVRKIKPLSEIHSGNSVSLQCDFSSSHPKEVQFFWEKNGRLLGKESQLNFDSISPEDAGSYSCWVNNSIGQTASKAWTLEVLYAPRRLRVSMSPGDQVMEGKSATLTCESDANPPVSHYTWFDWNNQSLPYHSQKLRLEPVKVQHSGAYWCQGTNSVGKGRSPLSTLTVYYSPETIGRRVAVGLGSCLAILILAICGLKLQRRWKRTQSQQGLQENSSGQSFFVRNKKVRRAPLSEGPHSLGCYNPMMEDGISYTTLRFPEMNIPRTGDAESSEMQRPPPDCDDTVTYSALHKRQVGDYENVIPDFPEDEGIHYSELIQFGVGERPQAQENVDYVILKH

[6] = target: B-cell receptor CD22 (Homo sapiens) (UniProt P20273); assay: Inhibition of hFc tagged CD22 (unknown origin) assessed as relative inhibitory potency incubated for 4 hrs by ELISA relative to 1,4-Bis-(2-aza-1-oxo-8-(sodium-(5-acetamido-3,5-dideoxy-D-glycero-alpha-D-galacto-non-2-ulopyranosyloxyonate))-5-thia-octyl)benzene
B-cell receptor CD22 [7] = target: T1, B-cell receptor CD22; assay: Inhibition of CD22 in human Daudi cells preincubated for 15 mins followed by biotinylated dimeric 2-(78-biotinoylamino-1,4,7,10,13,16-hexaoxa-octadecyl)-1,4-bis(2-aza-l-oxo-8-(sodium(5-acetamido-3,5,9-trideoxy-9-(4-phenylbenzamido)-D-glycero-a-D-galacto-non-2-ulopyranosyloxyonate))-5-thia-octyl) benzene probe addition incubated for 20 mins by flow cytometric analysis; assay type: cell-based

Compound | fold change (FC) [1] | fold change (FC) [2] | further results
CC(=O)N[C@H]1[C@H]([C@H](O)[C@H](O)CNC(=O)c2ccc(-c3ccccc3)cc2)O[C@@](OCCCSCCNCc2ccc(CNCCSCCCO[C@]3(C(=O)O)C[C@H](O)[C@@H](NC(C)=O)[C@H]([C@H](O)[C@H](O)CNC(=O)c4ccc(-c5ccccc5)cc4)O3)cc2)(C(=O)O)C[C@@H]1O | 0.011 | 0.1 | –
CC(=O)N[C@H]1[C@H]([C@H](O)[C@H](O)CO)O[C@@](OCCCSCCNC(=O)c2ccc(C(=O)NCCSCCCO[C@]3(C(=O)O)C[C@H](O)[C@@H](NC(C)=O)[C@H]([C@H](O)[C@H](O)CNC(=O)c4ccc(-c5ccccc5)cc4)O3)cc2)(C(=O)O)C[C@@H]1O | – | – | Activity [3]: Dde; fold change (FC) [4]: 135; IC50 (B-cell receptor CD22 [5]): 0.39 nM; fold change (FC) [6]: 105
CC(=O)N[C@H]1[C@H]([C@H](O)[C@H](O)CNC(=O)c2ccc(-c3cccs3)s2)O[C@@](OCCCSCCNC(=O)c2ccc(C(=O)NCCSCCCO[C@]3(C(=O)O)C[C@H](O)[C@@H](NC(C)=O)[C@H]([C@H](O)[C@H](O)CNC(=O)c4ccc(-c5cccs5)s4)O3)cc2)(C(=O)O)C[C@@H]1O | 0.07 | 4.5 | –
CC(=O)N[C@H]1[C@H]([C@H](O)[C@H](O)CNC(=O)c2ccc(-c3ccccc3)cc2)O[C@@](OCCCSCCNC(=O)c2ccc(C(=O)NCCSCCCO[C@]3(C(=O)O)C[C@H](NS(=O)(=O)O)[C@@H](NC(C)=O)[C@H]([C@H](O)[C@H](O)CNC(=O)c4ccc(-c5ccccc5)cc4)O3)c(OCCOCCOCCOCCOCCOCCN)c2)(C(=O)O)C[C@@H]1NS(=O)(=O)O | 34 | – | –
CC(=O)N[C@H]1[C@H]([C@H](O)[C@H](O)CNC(=O)c2ccc(-c3ccccc3)cc2)O[C@@](OCCCSCCNC(=O)c2ccccc2)(C(=O)O)C[C@@H]1O | – | – | IC50 (B-cell receptor CD22 [5]): 0.32 nM; fold change (FC) [6]: 128
CC(=O)N[C@H]1[C@H]([C@H](O)[C@H](O)CNC(=O)c2ccc(-c3ccccc3)cc2)O[C@@](OCCCSCCNC(=O)c2ccc(C(=O)NCCSCCCO[C@]3(C(=O)O)C[C@H](NS(=O)(=O)O)[C@@H](NC(C)=O)[C@H]([C@H](O)[C@H](O)CNC(=O)c4ccc(-c5ccccc5)cc4)O3)cc2)(C(=O)O)C[C@@H]1NS(=O)(=O)O | 138 | 65 | –
CC(=O)N[C@H]1[C@H]([C@H](O)[C@H](O)CNC(=O)c2ccc(-c3ccccc3)cc2)O[C@](C(=O)O)(n2cc(CCCCNC(=O)c3ccc(C(=O)NCCCCc4cn([C@]5(C(=O)O)C[C@H](O)[C@@H](NC(C)=O)[C@H]([C@H](O)[C@H](O)CNC(=O)c6ccc(-c7ccccc7)cc6)O5)nn4)cc3)nn2)C[C@@H]1O | < 0.0001 | 0.86 | –
CC(=O)N[C@H]1[C@H]([C@H](O)[C@H](O)CNC(=O)c2ccc(-c3ccccc3)cc2)O[C@@](OCCCSCCNC(=O)c2ccc(C(=O)NCCSCCCO[C@]3(C(=O)O)C[C@H](O)[C@@H](NC(C)=O)[C@H]([C@H](O)[C@H](O)CNC(=O)c4ccc(-c5ccccc5)cc4)O3)c(Br)c2)(C(=O)O)C[C@@H]1O | 5.9 | 0.77 | –
CC(=O)N[C@H]1[C@H]([C@H](O)[C@H](O)CO)O[C@@](OCCCSCCNC(=O)c2ccc(C(=O)NCCSCCCO[C@]3(C(=O)O)C[C@H](O)[C@@H](NC(C)=O)[C@H]([C@H](O)[C@H](O)CO)O3)cc2)(C(=O)O)C[C@@H]1O | 0.00034 | 0.01 | –
CC(=O)N[C@H]1[C@H]([C@H](O)[C@H](O)CNC(=O)c2ccc(-c3ccccc3)cc2)O[C@@](OCCCSCCNC(=O)CCCCC(=O)NCCSCCCO[C@]2(C(=O)O)C[C@H](O)[C@@H](NC(C)=O)[C@H]([C@H](O)[C@H](O)CNC(=O)c3ccc(-c4ccccc4)cc3)O2)(C(=O)O)C[C@@H]1O | 0.073 | 0.77 | IC50 (B-cell receptor CD22 [7]): 24000 nM
CC(=O)N[C@H]1[C@H]([C@H](O)[C@H](O)CNC(=O)c2ccc(-c3ccccc3)cc2)O[C@@](OCCCSCCC(=O)Nc2ccc(NC(=O)CCSCCCO[C@]3(C(=O)O)C[C@H](O)[C@@H](NC(C)=O)[C@H]([C@H](O)[C@H](O)CNC(=O)c4ccc(-c5ccccc5)cc4)O3)cc2)(C(=O)O)C[C@@H]1O | 1.5 | 0.1 | –
CC(=O)N[C@H]1[C@H]([C@H](O)[C@H](O)CNC(=O)c2ccc(-c3ccccc3)cc2)O[C@@](OCCCSCCNC(=O)c2ccc(C(=O)NCCSCCCO[C@]3(C(=O)O)C[C@H](O)[C@@H](NC(C)=O)[C@H]([C@H](O)[C@H](O)CNC(=O)c4ccc(C5CCCCC5)cc4)O3)cc2)(C(=O)O)C[C@@H]1O | – | – | fold change (FC) [4]: 185
CC(=O)N[C@H]1[C@H]([C@H](O)[C@H](O)CNC(=O)c2ccc(-c3ccccc3)cc2)O[C@@](OCCCSCCNC(=O)c2ccc(-c3ccc(C(=O)NCCSCCCO[C@]4(C(=O)O)C[C@H](O)[C@@H](NC(C)=O)[C@H]([C@H](O)[C@H](O)CNC(=O)c5ccc(-c6ccccc6)cc5)O4)cc3)cc2)(C(=O)O)C[C@@H]1O | 0.01 | 0.17 | –

Now from value to molecule, other results behind:

fold change (FC) [1] | fold change (FC) [2] | Compound | further results
0.0028 | 0.18 | CC(=O)N[C@H]1[C@H]([C@H](O)[C@H](O)CNC(=O)c2ccc(-c3ccccc3)cc2)O[C@@](OCc2cn(CCNC(=O)c3ccc(C(=O)NCCn4cc(CO[C@]5(C(=O)O)C[C@H](O)[C@@H](NC(C)=O)[C@H]([C@H](O)[C@H](O)CNC(=O)c6ccc(-c7ccccc7)cc6)O5)nn4)cc3)nn2)(C(=O)O)C[C@@H]1O | –
0.14 | – | CC(=O)N[C@H]1[C@H]([C@H](O)[C@H](O)CNC(=O)c2ccc(-c3ccccc3)cc2)O[C@@](OCCCSCCNC(=O)c2ccc(C(=O)NCCSCCCO[C@]3(C(=O)O)C[C@H](O)[C@@H](NC(C)=O)[C@H]([C@H](O)[C@H](O)CNC(=O)c4ccc(-c5ccccc5)cc4)O3)c(OCCOCCOCCOCCOCCOCCN)c2)(C(=O)O)C[C@@H]1O | –
3.7 | 1.2 | CC(=O)N[C@H]1[C@H]([C@H](O)[C@H](O)CNC(=O)c2ccc(-c3ccccc3)cc2)O[C@@](OCCCSCCNC(=O)c2ccc(C(=O)NCCSCCCO[C@]3(C(=O)O)C[C@H](O)[C@@H](NC(C)=O)[C@H]([C@H](O)[C@H](O)CNC(=O)c4ccc(-c5cccs5)cc4)O3)cc2)(C(=O)O)C[C@@H]1O | –
0.11 | 0.79 | CC(=O)N[C@H]1[C@H]([C@H](O)[C@H](O)CNC(=O)c2ccc(-c3ccccc3)cc2)O[C@@](OCCCSCCNC(=O)c2cccc(C(=O)NCCSCCCO[C@]3(C(=O)O)C[C@H](O)[C@@H](NC(C)=O)[C@H]([C@H](O)[C@H](O)CNC(=O)c4ccc(-c5ccccc5)cc4)O3)c2)(C(=O)O)C[C@@H]1O | –
1.3 | 5.3 | CC(=O)N[C@H]1[C@H]([C@H](O)[C@H](O)CNC(=O)c2ccc(-c3ccccc3Cl)cc2)O[C@@](OCCCSCCNC(=O)c2ccc(C(=O)NCCSCCCO[C@]3(C(=O)O)C[C@H](O)[C@@H](NC(C)=O)[C@H]([C@H](O)[C@H](O)CNC(=O)c4ccc(-c5ccccc5Cl)cc4)O3)cc2)(C(=O)O)C[C@@H]1O | –
0.008 | 0.1 | CC(=O)N[C@H]1[C@H]([C@H](O)[C@H](O)CNC(=O)c2ccc(C3CCCCC3)cc2)O[C@@](OCCCSCCNC(=O)c2ccc(C(=O)NCCSCCCO[C@]3(C(=O)O)C[C@H](O)[C@@H](NC(C)=O)[C@H]([C@H](O)[C@H](O)CNC(=O)c4ccc(C5CCCCC5)cc4)O3)cc2)(C(=O)O)C[C@@H]1O | –
0.71 | 1.6 | CC(=O)N[C@H]1[C@H]([C@H](O)[C@H](O)CNC(=O)c2ccc(-c3ccsc3)cc2)O[C@@](OCCCSCCNC(=O)c2ccc(C(=O)NCCSCCCO[C@]3(C(=O)O)C[C@H](O)[C@@H](NC(C)=O)[C@H]([C@H](O)[C@H](O)CNC(=O)c4ccc(-c5ccsc5)cc4)O3)cc2)(C(=O)O)C[C@@H]1O | –
0.013 | 0.49 | CC(=O)N[C@H]1[C@H]([C@H](O)[C@H](O)CNC(=O)c2ccc(-c3ccccc3)cc2)O[C@@](OCCC[S+]([O-])CCNC(=O)c2ccc(C(=O)NCC[S+]([O-])CCCO[C@]3(C(=O)O)C[C@H](O)[C@@H](NC(C)=O)[C@H]([C@H](O)[C@H](O)CNC(=O)c4ccc(-c5ccccc5)cc4)O3)cc2)(C(=O)O)C[C@@H]1O (some centres not stated) | –
